The record followed here is ChEMBL document CHEMBL4622879, “Structural Revision of Garcinielliptin Oxide and Garcinielliptone E” (J Nat Prod, 2020).

The subject of one assay is K562. The experiment in a line: Cytotoxicity against human K562 cells at 40 uM after 1 to 11 days by tetrazolium reagent based assay. In kind it is functional, cell-based.
In another assay the test system is MDA-MB-231. The experiment in a line: Cytotoxicity against human MDA-MB-231 cells at 40 uM after 1 to 11 days by tetrazolium reagent based assay. In kind it is functional, cell-based.
A further assay deals with A549. The assay can be described thus: Cytotoxicity against human A549 cells at 40 uM after 1 to 11 days by tetrazolium reagent based assay. In kind it is functional, cell-based.
In another assay the test system is HCT-116. The assay can be described thus: Cytotoxicity against human HCT116 cells at 40 uM after 1 to 11 days by tetrazolium reagent based assay. In kind it is functional, cell-based.
A further assay relates to HepG2. The experiment in a line: Cytotoxicity against human HepG2 cells at 40 uM after 1 to 11 days by tetrazolium reagent based assay. In kind it is functional, cell-based.
The test system of a further assay is RAW264.7. The experiment in a line: Antiinflammatory activity in mouse RAW264.7 assessed as reduction in LPS-induced NO production. In kind it is functional, cell-based.
In another assay the target is Acetylcholinesterase (Homo sapiens, UniProt P22303). The experiment in a line: Inhibition of human erythrocyte acetylcholinesterase using acetylthiocholine as substrate preincubated for 20 mins followed by substrate addition and measured after 30 mins by Ellman's method.

Each structure is given as a SMILES string. pIC50: −log10 of the molar value. Active and inactive are the calls of the source. No cut-off for these calls is given here.

Acetylcholinesterase, sequence (P22303 whole entry): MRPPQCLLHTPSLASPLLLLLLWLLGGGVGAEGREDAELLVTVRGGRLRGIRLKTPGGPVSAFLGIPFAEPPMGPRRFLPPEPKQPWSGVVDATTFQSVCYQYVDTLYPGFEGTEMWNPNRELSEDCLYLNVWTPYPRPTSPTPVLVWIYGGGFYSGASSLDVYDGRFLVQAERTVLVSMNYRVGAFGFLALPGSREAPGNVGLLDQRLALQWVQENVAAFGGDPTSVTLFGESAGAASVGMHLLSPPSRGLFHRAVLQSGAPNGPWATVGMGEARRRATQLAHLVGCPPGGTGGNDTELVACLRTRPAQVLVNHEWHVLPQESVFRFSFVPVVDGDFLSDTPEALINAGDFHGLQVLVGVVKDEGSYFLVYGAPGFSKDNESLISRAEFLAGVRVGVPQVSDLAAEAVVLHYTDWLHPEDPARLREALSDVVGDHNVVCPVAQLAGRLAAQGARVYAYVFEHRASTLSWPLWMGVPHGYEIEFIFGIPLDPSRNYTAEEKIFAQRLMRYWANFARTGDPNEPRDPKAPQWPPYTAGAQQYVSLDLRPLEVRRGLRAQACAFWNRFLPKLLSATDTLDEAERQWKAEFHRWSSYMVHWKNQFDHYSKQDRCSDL

With `CCC(C)C(=O)[C@]12C(=O)[C@]3(CC=C(C)C)OC1(O)[C@](CC=C(C)C)(C[C@H](CC=C(C)C)C2(C)C)C3=O` (stereo partly drawn), the outcome with K562, with MDA-MB-231, in the assay on A549, in the assay on HCT-116, in the assay on HepG2 and in the assay on RAW264.7 was inactive.
One may read the pIC50 as the IC50 on a negative log10 scale, so that one unit is a factor of ten. Low readings indicate a large IC50, high ones a small IC50. On to `CC(C)=CC[C@H]1C[C@]2(CC=C(C)C)C(=O)[C@]3(CC=C(C)C)O[C@@]1(C(=O)C(C)C)[C@@]2(O)C(C)(C)C3=O`, for which the outcome in the assay with K562, in the assay on MDA-MB-231, in the assay with A549, with HCT-116, with HepG2 and in the assay with RAW264.7 was inactive. Moreover, the negative-log IC50 (pIC50) against Acetylcholinesterase is 4.68.
